Legend:
cornea = assay: Cornea assay for angiogenic factors; assay type: in vivo, rat; settings: FGF 0.15 μM (six animals); Cyr61 1 μg/ml (seven animals)
Description: Another assay for modulators of angiogenesis is an in vivo assay for assessing the effect of a suspected modulator in the presence of an ECM signaling molecule-related biomaterial, such as Cyr61, on angiogenesis is the Cornea Assay. The Cornea Assay takes advantage of the absence of blood vessels in the cornea, which in the presence of an angiogenic factor, results in the detectable development of capillaries extending from the sclera into the cornea. Friedlander et al., Science 270:1500-1502 (1995). This ingrowth of new blood vessels from the sclera can be microscopically monitored. Further, the visually determined rate of migration can be used to assess changes in the rate of angiogenesis. […] Subsequently, eyes containing implants are visually observed for growth of the readily visible blood vessels within the eye. […]
Although rats of various sizes can be used in the cornea assay, a preferred size for the rats is 150-200 g/animal. […] Once the cornea pocket is made, the spatula is removed and the distance between the limbus and base of the pocket is measured to make sure the separation is at least about 1 mm. […]
Following surgery, animals are examined daily for seven days with the aid of a stereomicroscope to check for inflammation and responses. […] During this seven day period, animals are monitored for implant position and corneal exudate. […]

HUVE cells = assay: Thymidine incorporation (mitogen potentiation), HUVE cells; assay type: cell-based, human
Description: Human umbilical vein endothelial cells were plated essentially as described above for 3T3 cells and exposed to a constant amount of murine Cyr61; controls received no Cyr61. Different plates were then exposed to different levels of bFGF, comprising a series of bFGF concentrations ranging from 0-10 ng/ml. […] At 1 ng/ml bFGF, however, HUVE cells increased their thymidine incorporation in the presence of bFGF to 6×10^2 cpm; in the presence of 1 ng/ml bFGF and murine Cyr61, HUVE cells incorporated 1.3×10^3 cpm. At 10 ng/ml bFGF, cells exposed to bFGF incorporated about 1.8×10^3 cpm thymidine; cells receiving 10 ng/ml bFGF and Cyr61 incorporated approximately 6.1×10^3 cpm.
The capacity of murine Cyr61 to potentiate the mitogenic activity of bFGF was verified by a thymidine incorporation assay involving HUVE cells and various combinations of bFGF, Cyr61, and anti-Cyr61 antibodies. Cells were plated and grown as described above. The following combinations of supplements (final plate concentrations noted parenthetically) were then pre-incubated for 1 hour before addition to individual plates: 1) pre-immune antiserum (3%); 2) bFGF (15 ng/ml) and pre-immune antiserum (3%); 3) pre-immune antiserum (3%) and Cyr61 (4 μg/ml); 4) pre-immune antiserum (3%), Cyr61 (4 μg/ml), and bFGF (15 ng/ml); 5) anti-Cyr61 antiserum (3%); 6) anti-Cyr61 antiserum and bFGF (15 ng/ml); 7) anti-Cyr61 antiserum (3%) and Cyr61 (4 μg/ml); and 8) anti-Cyr61 antiserum (3%), Cyr61 (4 μg/ml), and bFGF (15 ng/ml).
DNA synthesis for HUVE cells and NIH 3T3 fibroblasts was measured by thymidine incorporation as described previously (Kireeva et al., [1996]) with minor modifications. HUVE cells were grown in 24-well plates to a subconfluent state, serum-starved for 24 hours and treated with F12K medium containing 10% fetal bovine serum (FBS), 1 μCi/ml [^3H]-thymidine and 10 ng/ml basic Fibroblast Growth Factor (bFGF) (Gibco-BRL, Inc.) with various concentrations of Cyr61 and Fisp12 as indicated. […] Thymidine incorporation into the trichloroacetic acid-insoluble fraction was determined after 24 hour incubation. […]

bFGF: Growth factor used as positive control [reference compound]
eyes showing blood vessel growth after seven days (cornea): all six | thymidine incorporation, baseline (HUVE cells; 0-0.1 ng/ml bFGF, presence or absence of Cyr61, 72 hours): approximately 4×10^2 cpm | thymidine incorporation, bFGF alone (HUVE cells; 1 ng/ml bFGF): 6×10^2 cpm | thymidine incorporation, bFGF alone (HUVE cells; 10 ng/ml bFGF): about 1.8×10^3 cpm

— patent US7521540B2, “CYR61 compositions and methods” (Munin Corporation, priority 1996, dated 2009)
